# Measurements taken from US20220380432A1, “Acylated Calcitonin Mimetics” (KeyBioscience AG, priority 2018, published 2022).
# Numbered stars: 1 amine (or outer) side, 2 acyl side, 3 side chain; on linkers, the order of the positions; unused ones are H or OH. Bridge positions count the residues as written; N and C are the ends. Square brackets hold non-standard residues; d marks the D form. Side chains are listed from the residue outwards. Ends that are not written are not given here. Peptide text beside a SMILES is read from it. * marks the point of attachment. C18 diacid = O=C(O)CCCCCCCCCCCCCCCCC(=O)*; γGlu = O=C(O)[C@H](CCC(=O)[*:2])N[*:1]; AEEA = NCCOCCOCC(=O)O; Aib = CC(C)(N)C(=O)O
# Assays:
# male ZDF rats = test: Chronic study in male ZDF rats (food intake, body weight, FBG, HbA1c, OGTT); type: in vivo, rat; conditions: 62-day study
# Procedure: A chronic study was performed in male ZDF rats. (obese homozygous recessive (fa/fa) strain: 370) (Charles River, USA). Rats were delivered 5 weeks of age. The rats were housed 2-3 per cage.
# Rats were delivered to the animal facility of Nordic Bioscience at five weeks of age (DAY −6). Rats were acclimatized for three days. HbA1c and BW was registered (DAY −3). Rats were randomized based on HbA1c (primarily) and BW (secondly) at […]. The study was initiated at DAY 1.
# Animals were dosed once daily with KBP-066 or saline (vehicle). Dosing with KBP-066A11.03 was performed once every third day. Dosing was administered subcutaneously (SC) around noon.
# Saline: Dosage volume was 1 mL/kg. […]
# DAY −3: HbA1c measurement DAY 1: (first day of study), rats were fasted for 6 h and a BG and blood sample was taken. […] Hb1Ac is measured during the OGTT at t=120 or t=180. […]
# Food intake was monitored daily. Body weight was monitored daily for first three weeks, then twice weekly after week three.
# Fasting blood glucose was monitored every two weeks using Accu-Check® Avia monitoring system (Roche Diagnostics, Rotkreuz, Switzerland): Measurement was taken from the tail vein (25 G needle).
# Rats were non-fasted for the first (randomization) and second (after the second OGTT) HbA1c measurement. A single drop of blood was applied to the HbA1c cassette and the HbA1c was measured using a DCA Vantage Analyzer. […]
# [1] = tested on: serum albumin from humans (HSA); type: binding, man (Homo sapiens)
# Procedure: FIG. 14: Competitive ligand binding assay using radio labelled salmon calcitonin (^125I-sCT) as tracer and conducted 2% serum albumin from two different species, rat (Rattus norvegicus) and man (Homo sapiens). As a tracer 0.25 nM ^125I-sCT was used. A) Competitive binding assay conducted in 2% RSA. B) Competitive binding assay conducted in 2% HSA. Data as +/−SEM. To investigate whether the improved efficacy in the acute setting of acylation 4 and 5 could be translated to man, a competitive ligand binding assay was conducted to explore acylation binding to serum albumin in rodent and man.
# [2] = molecular target: T1, Calcitonin Receptor (CTR) (Homo sapiens (Human), UniProt P30988); test: cell-based or functional assay
# T1 sequence: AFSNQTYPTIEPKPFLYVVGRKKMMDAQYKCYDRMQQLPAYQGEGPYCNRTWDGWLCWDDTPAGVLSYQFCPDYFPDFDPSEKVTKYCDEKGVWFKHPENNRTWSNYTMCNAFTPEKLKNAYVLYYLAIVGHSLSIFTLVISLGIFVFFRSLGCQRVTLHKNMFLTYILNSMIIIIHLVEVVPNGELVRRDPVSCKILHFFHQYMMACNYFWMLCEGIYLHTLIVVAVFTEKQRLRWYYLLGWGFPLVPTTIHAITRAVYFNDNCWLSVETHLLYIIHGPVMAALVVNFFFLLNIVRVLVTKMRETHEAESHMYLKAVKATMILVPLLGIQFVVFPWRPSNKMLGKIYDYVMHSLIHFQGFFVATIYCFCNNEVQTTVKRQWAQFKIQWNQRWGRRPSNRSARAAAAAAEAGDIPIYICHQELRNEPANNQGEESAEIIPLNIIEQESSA
# Amylin Receptor (AMY-R) = molecular target: T2, Amylin Receptor (AMY-R) (Homo sapiens (Human), UniProt P30988); test: cell-based or functional assay
# T2 sequence 1: T1 sequence
# T2 sequence 2: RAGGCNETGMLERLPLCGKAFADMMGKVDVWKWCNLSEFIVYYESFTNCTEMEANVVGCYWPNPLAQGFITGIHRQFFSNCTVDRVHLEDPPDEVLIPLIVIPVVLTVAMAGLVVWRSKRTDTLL
molecule,measurement,setting,value
CSNLSTC(AiB)LGRLSQDLHRLQTYPKTDVGANAP [KBP-066],fasting blood glucose (in words),male ZDF rats,reduced FBG in a dose dependent manner
CC(=O)N[C@H]1CSSC[C@@H](C(=O)NC(C)(C)C(=O)N[C@@H](CC(C)C)C(=O)NCC(=O)N[C@@H](CCCCNC(=O)COCCOCCNC(=O)COCCOCCNC(=O)CC[C@H](NC(=O)CCCCCCCCCCCCCCCCC(=O)O)C(=O)O)C(=O)N[C@@H](CC(C)C)C(=O)N[C@@H](CO)C(=O)N[C@@H](CCC(N)=O)C(=O)N[C@@H](CC(=O)O)C(=O)N[C@@H](CC(C)C)C(=O)N[C@@H](Cc2c[nH]cn2)C(=O)N[C@@H](CCCNC(=N)N)C(=O)N[C@@H](CC(C)C)C(=O)N[C@@H](CCC(N)=O)C(=O)N[C@H](C(=O)N[C@@H](Cc2ccc(O)cc2)C(=O)N2CCC[C@H]2C(=O)N[C@@H](CCCCN)C(=O)N[C@H](C(=O)N[C@@H](CC(=O)O)C(=O)N[C@H](C(=O)NCC(=O)N[C@@H](C)C(=O)N[C@@H](CC(N)=O)C(=O)N[C@@H](C)C(=O)N2CCC[C@H]2C(N)=O)C(C)C)[C@@H](C)O)[C@@H](C)O)NC(=O)[C@H]([C@@H](C)O)NC(=O)[C@H](CO)NC(=O)[C@H](CC(C)C)NC(=O)[C@H](CC(N)=O)NC(=O)[C@H](CO)NC1=O [KBP-356] (Ac-CSNLSTC[Aib]LGK([AEEA-AEEA-γGlu-C18 diacid])LSQDLHRLQTYPKTDVGANAP-NH2; disulfide 1-7 (inferred)),EC50 in competitive binding (in words),[1],no differences in EC50
Ac-CSNLSTCMLGRLSQELHRLQTYPKTDVGANAPK (not fully specified (residue 33); ends and bridges not checked) [KBP-318],β-arrestin Fold Recruitment EC50 values (10^-9 M),[2],197 nM
same,β-arrestin Fold Recruitment EC50 values (10^-9 M),Amylin Receptor (AMY-R),301 nM
